Reference: ChEMBL document CHEMBL1157539, “Thousands of chemical starting points for antimalarial lead identification” (Nature, 2010)

Tested on: Plasmodium falciparum
Assay: GSK_TCMDC: Inhibition of Plasmodium falciparum 3D7 in whole erythrocytes, using parasite LDH activity as an index of growth.
Assay type: functional, organism-based
Conditions: Plasmodium falciparum, 3D7

Row | Compound | XC50
1 | O=C(NCCc1cccc(Cl)c1Cl)c1cnc(N2CCN(c3ccncc3)CC2)c(Cl)c1 | 702 nM
2 | CCc1c[nH]c2c(N(c3ccccc3)S(C)(=O)=O)cc(C(=O)N[C@@H](Cc3ccccc3)[C@H](O)CNC(C)(C)CCCC(C)C)cc12 | 823 nM
3 | CCCN(c1ccc(O)c(CN2CCCCC2)c1)c1ccc([N+](=O)[O-])cn1 | 805 nM
4 | CCCCCc1cc(OCCN(C)C)cc2c1C(=O)CC(C)(C)O2 | 103 nM
5 | COC(=O)c1ccc(CC(C)NCC(O)c2cccc3ccccc23)cc1 (stereo not given) | 935 nM
6 | Cc1nn(CC(O)Cn2c3ccc(Br)cc3c3cc(Br)ccc32)c(C)c1Br (stereo not given) | 713 nM
7 | COc1ccc(CCNc2ccnc3cc(Cl)ccc23)cc1OC | 891 nM
8 | Cc1ccc(Cc2c[nH]c(NCCSCc3ccc(CN(C)C)s3)nc2=O)cn1 | 860 nM
9 | O=C(Nc1ccc(Cl)c(Cl)c1)N1CCC(CNCc2cccc([N+](=O)[O-])c2)CC1 | 979 nM
10 | COc1ccc2nc(C)cc(NCc3cccc4ccccc34)c2c1 | 217 nM
11 | CCN1CCCC(CNC(=O)/C(=C/C=C/c2cc3cc(Cl)c(Cl)cc3[nH]2)OC)C1 (stereo not given) | 888 nM
12 | Nc1cccc(CNCc2cccc(-c3cccc(-c4nc5cc(C(F)(F)F)ccc5[nH]4)c3)c2)c1 | 510 nM
13 | CCCCCc1ccc(N2C(N)=NC(N)=NC2(C)C)cc1 | 131 nM
14 | COc1ccc(Nc2nc(N/N=C/c3ccc(-c4ccc([N+](=O)[O-])cc4)o3)nc(Nc3ccccc3)n2)cc1 | 761 nM
15 | CCN(CC)CCNc1cc(C)nc(NC(=N)Nc2ccc(Cl)cc2)n1 | 130 nM
16 | Cc1cccc2nc(-c3ccc(-c4ccc(NC(=O)Nc5ccc(Cl)c(Cl)c5)cc4)s3)[nH]c12 | 176 nM
17 | O=C1Nc2cccc3c2C1(CCCN1CCC(c2c[nH]c4cc(C(F)(F)F)ccc24)CC1)CCC3 (stereo not given) | 961 nM
18 | c1ccc([C@H]2CN3CCSC3=N2)cc1 [LEVAMISOLE] | 622 nM
19 | COc1ccc(C(=O)N[C@@H](CC(C)C)C(=O)NC2CC[C@@H](C)N(C(=O)Nc3ccc(Cl)cc3)CC2=O)cc1OCCN1CCOCC1 (stereo not given in full) | 152 nM
20 | C=CCc1cc(Br)ccc1OCCCOc1c(C)nc(N)nc1N | 3.2 nM
21 | CC(=O)c1c(Cc2cccc(C(F)(F)F)c2)c[nH]c1C | 346 nM
22 | CC(=O)Nc1cc(C(=O)Nc2cccc(-c3cccc(-c4nc5cccc(C)c5[nH]4)c3)c2)ccc1C | 329 nM
23 | O=C(CN1CCN(S(=O)(=O)C=Cc2ccccc2)CC1)Nc1cc(C(F)(F)F)ccc1Cl | 776 nM
24 | Oc1ccccc1CN1CCN(C(c2ccccc2)c2ccccc2)CC1 | 761 nM

Row | Compound | XC50
25 | N[C@@H](CCNCc1ccc(-c2cccnc2)cc1)Cc1ccc(F)c(F)c1 | 797 nM
26 | O=C(c1ccc(Cl)cc1)N1CCCC(C(=O)N(Cc2nnc(-c3ccccc3Cl)o2)C2CC2)C1 (stereo not given) | 227 nM
27 | CC(C)CCCC(C)(C)NC[C@@H](O)[C@H](Cc1ccccc1)NC(=O)c1cc(NC(C)C)cc(N2CCCCS2(=O)=O)c1 | 206 nM
28 | Cc1ncc(CN2CCC(C(=O)Nc3ccc(-c4nc5ccccc5o4)cc3)CC2)s1 | 393 nM
29 | O=C(Nc1ccc(-c2nc3ccccc3[nH]2)cc1)C1CCCN(CC2CC2)C1 (stereo not given) | 946 nM
30 | CC(C)CNCc1ccc(-c2cccc(CNC3CCN(Cc4ccccc4)CC3)c2)cc1 | 239 nM
31 | COc1ccc(C=NN=c2cc(C)[nH]c3ccccc23)cc1OC | 859 nM
32 | CCCCCN1CCCN(Cc2cccc(NC(=O)c3ccc(Cl)c(Cl)c3)c2)CC1 | 927 nM
33 | O=C(/C=C/c1ccc(Cl)c(Cl)c1)NCC1CCC(N2CCC(c3c[nH]c4ccccc34)CC2)CC1 (stereo not given) | 172 nM
34 | COC(=O)c1ccccc1COc1ccc(CC2(NC(=O)[C@H](Nc3ccc(C#N)c4ccccc34)C(C)(C)C)CCCC2)cc1 | 856 nM
35 | Cc1ccc(NC(=O)C(C)Sc2nnc(-c3ccccc3Br)[nH]2)cc1 (stereo not given) | 1090 nM
36 | OCC1CCN(Cc2cccc(C#Cc3cc4ncnc(Nc5ccc(OCc6cccc(F)c6)c(Cl)c5)c4s3)n2)CC1 | 552 nM
37 | O=C(CCc1c[nH]cn1)Nc1ccc(-c2cccc(-c3nc4ccccc4[nH]3)c2)cc1 | 348 nM
38 | CN(C)CCNCc1cccc(-c2ccc3c(Nc4cc(O)c(Cl)cc4F)ccnc3c2)c1 | 549 nM
39 | Cc1cccc2nc(-c3cccc(-c4ccc(CNCCCN5CCCC5=O)cc4)c3)[nH]c12 | 956 nM
40 | CC(C)c1ccc(NC(=O)c2ccc(CN3CCCN(CC4CCCCC4)CC3)cc2)cc1 | 615 nM
41 | CC(Cc1ccc(OCCCCOc2ccccc2)cc1)NCCCn1ccnc1 (stereo not given) | 167 nM
42 | CC(Oc1ccc(Cl)cc1Cl)c1nc(-c2ccc(NC(=O)c3ccco3)cc2)no1 (stereo not given) | 905 nM
43 | Cc1[nH]c(C)c(-c2ccc(Oc3ccc(O)cc3)cc2)c(=O)c1Cl | 1040 nM
44 | CCCCN(Cc1cccc(C(F)(F)F)c1Cl)c1ccc(C(O)(C(F)(F)F)C(F)(F)F)cc1 | 960 nM
45 | CN(CCCCN)Cc1ccc(-c2ccc(Cl)cc2)cc1 | 882 nM
46 | COc1ccc(C2CC(=O)C3=C(C2)NC(C)=C(C(=O)OC2CCCC2)C3c2ccc(O)cc2)cc1OC (stereo not given) | 565 nM
47 | CNc1ccc(CNCc2ccc(-c3ccc(-c4nc5cccc(C)c5[nH]4)s3)cc2)cc1 | 661 nM
48 | COc1ccc(CNCc2ccc(F)cc2)cc1-c1cccc(S(=O)(=O)NCCN2CCCC2)c1 | 805 nM

Row | Compound | XC50
49 | O=C(O)C[C@H](NC(=O)[C@@H]1CCCN1C(=O)c1cccc(-c2ccc(Cl)c(Cl)c2)c1)C(=O)O | 863 nM
50 | N#Cc1cccc(C(=O)Nc2cccc(-c3cccc(CN4CCNCC4)c3)c2)c1 | 947 nM
51 | FC(F)(F)c1ccc2[nH]c(-c3ccc(-c4ccc(CNCC5CCCO5)cc4)cc3)nc2c1 (stereo not given) | 407 nM
52 | O=C(/C=C/c1ccc(Cl)c(Cl)c1)NCCCCCN1CCC(NC(=O)c2ccc(F)cc2F)CC1 | 759 nM
53 | CC[C@H](C)CNC(=O)c1cncc(-c2cccc(CN3CCC(N4CCCC4)CC3)c2)c1 | 1170 nM
54 | O=C(O)c1ccc(-c2c[nH]c3ncc(-c4ccc(Cl)cc4)cc23)cc1 | 726 nM
55 | COc1cccc(C23NC(=Nc4nc5ccccc5[nH]4)NC2(c2cccc(OC)c2)NC(=Nc2nc4ccccc4[nH]2)N3)c1 (stereo not given) | 157 nM
56 | CC(=O)c1cccc(NC(=O)N2CCCN(CCCCCNC(=O)/C=C/c3ccc(Cl)c(Cl)c3)CC2)c1 | 1010 nM
57 | CC(=O)N(C)c1cccc(CNc2cc(C)nc(Nc3ccc(C)cc3)n2)c1 | 996 nM
58 | Cc1cc(O)c(CN(C)Cc2ccc(N(C)C)cc2)cc1C(C)C | 550 nM
59 | NC1CCCN(Cc2cccc(-c3ccc(-c4nc5cc(C(F)(F)F)ccc5[nH]4)cc3)c2)C1 (stereo not given) | 518 nM
60 | CNC(=O)c1ccc2[nH]cc(C3CCN(CC4CCC(NC(=O)/C=C/c5ccc(Cl)c(Cl)c5)CC4)CC3)c2c1 (stereo not given) | 1010 nM
61 | O=C(/C=C/c1ccc(Cl)c(Cl)c1)NCCCCCN1CCC(NC(=O)Nc2cccc(C(F)(F)F)c2)CC1 | 697 nM
62 | CC(=O)Nc1ncc(C(=O)Nc2ccc(-c3cccc(-c4nc5cc(C(F)(F)F)ccc5[nH]4)c3)cc2)s1 | 260 nM
63 | COc1cc(-c2ccccc2)ccc1C(=O)Nc1ccc2c(c1)N(C)CCC2 | 325 nM
64 | C[C@H](Cc1ccc(OCCCCCCOc2ccc(C[C@@H](C)N[C@H](C)c3ccccc3)cc2)cc1)NC[C@H](O)c1cccc(Cl)c1 | 241 nM
65 | c1cncc(CCNCc2cccc(-c3ccc(-c4nc5ccccc5[nH]4)s3)c2)c1 | 202 nM
66 | COc1ccc(NC(=O)Nc2ccc(-c3cccc(-c4nc5cccc(C)c5[nH]4)c3)cc2)cc1 | 142 nM
67 | COc1ccc(C2CCN(CCN3CCC(NC(=O)c4cccc(-c5ccncc5)c4)CC3)CC2)c(OC)c1 | 797 nM
68 | CCC(C)c1ccc(NC(=O)c2ccc(S(=O)(=O)Nc3ccc(OC)c(N4CCN(CC5CC5)CC4)c3)cc2)cc1 (stereo not given) | 703 nM
69 | Cc1cccc2nc(-c3cccc(-c4ccc(CNCc5ccccc5)cc4)c3)[nH]c12 | 148 nM
70 | Cc1ccccc1C1CCN(C2CCC(NC(=O)/C=C/c3cccc(Cl)c3)CC2)CC1 (stereo not given) | 891 nM
71 | COc1ccc(N2CCN(CCCCNCc3ccc(NC(=O)c4cc(Cl)cc(Cl)c4)cc3)CC2)c(OC)c1 | 253 nM
72 | Nc1nc(N)c2c(Cl)c(N3CCOCC3)ccc2n1 | 76.9 nM

Row | Compound | XC50
73 | O=C(Nc1ccc(-c2nc3ccccc3[nH]2)cc1)c1cccc(S(=O)(=O)N2CCCC2)c1 | 743 nM
74 | O=C(N[C@@H](Cc1ccccc1)C(=O)O)c1cc(-c2ccc(F)cc2)no1.O=C(N[C@@H](Cc1ccccc1)C(=O)O)c1conc1-c1ccc(F)cc1 | 802 nM
75 | CC(CNC(=O)C(c1cc2ccccc2o1)N1CCN(C(c2ccccc2)c2ccccc2)CC1)c1ccccc1 (stereo not given) | 626 nM
76 | COc1ccc(-n2ccnc2SCC(=O)Nc2cccc(C(F)(F)F)c2)c(OC)c1 | 220 nM
77 | Cc1[nH]c(C)c(-c2ccc(-c3ccc(OC(F)(F)F)cc3)cc2)c(=O)c1Br | 38.6 nM
78 | C#CCOc1ccccc1CN1CCC(N2CCc3cc(NC(=O)c4cc(C)on4)ccc32)C1 (stereo not given) | 675 nM
79 | CCCC(C)NC(=O)[C@H]1CNCCN1C(=O)CCCc1ccccc1 (stereo not given in full) | 186 nM
80 | CC1(CCc2ccccc2)N=C(N)N(Cc2ccccc2)C(=O)C1c1ccc(Cl)c(Cl)c1 (stereo not given) | 805 nM
81 | Cc1[nH]c(C)c(-c2ccc(OCc3ccccc3C(F)(F)F)nc2)c(=O)c1Br | 16.4 nM
82 | CCN(CCNC(=O)C1CCN(c2cc(-c3cccc(C)c3)ncn2)CC1)Cc1ccccc1 | 171 nM
83 | COc1cc(F)c2ncc(Cl)c([C@@H](O)CN3CCC(NCc4ccc5c(n4)NC(=O)CO5)CC3)c2c1 | 124 nM
84 | Nc1nc(Nc2cccc(Cl)c2)ncc1C(=O)NCc1ccncc1 | 832 nM
85 | NC(=O)c1ccsc1NC(=O)CNC(c1ccccc1)c1ccc(Cl)cc1 (stereo not given) | 262 nM
86 | CNCCNCc1ccc(-c2ccc(-c3nc4cc(F)ccc4[nH]3)cc2)cc1 | 387 nM
87 | CCOc1ccccc1CCNC(C)Cc1ccc(C(=O)Nc2ccc(CC(C)NCCc3cccc(Cl)c3)cc2)cc1 (stereo not given) | 539 nM
88 | CCCCCc1cnc2nc(N)nc(N)c2c1C | 211 nM
89 | CC[C@H]1CN2CC[C@H]1C[C@H]2[C@H](O)c1cc(-c2ccc(F)cc2C)nc2ccc(OC)cc12 | 157 nM
90 | O=C(NCCCCCN1CCC(c2c[nH]c3ccccc23)CC1)Nc1ccc(Br)cc1 | 925 nM
91 | O=S(=O)(c1cccc(F)c1)c1ccc(Nc2ncnc3cc(Br)sc23)cc1Cl | 1030 nM
92 | CN(C)CCOc1ccc(-c2cc(-c3ccc(Cl)c(O)c3)c(-c3ccncc3)[nH]2)cc1 | 580 nM
93 | N=C(N)NC(=O)Nc1cc(F)c(Cl)c(Cl)c1 | 505 nM
94 | Cc1ccc(C(=O)NCC2CCN(c3ccc(C(F)(F)F)cc3NC(=O)c3ccco3)CC2)cn1 | 782 nM
95 | c1cc2c3c(cccc3c1)NC(CCCCCCCCC1=Nc3cccc4cccc(c34)N1)=N2 | 826 nM
